Results taken from patent US10556898B2, “Indazolyl-1,2,4-thiadiazolamines and related compounds for inhibition of Rho-associated protein kinase and the treatment of disease” (Lycera Corporation, priority 2016, dated 2020).
Where two headings read alike, the source gives them in different places.

Tests used:
[1] = molecular target: T1, GST-tagged human ROCK2 catalytic domain 1-553 (Homo sapiens, UniProt O75116); assay: Isolated Enzyme Assay, ROCK2 (LANCE Ultra ULight-CREBtide FRET); format: biochemical; conditions: 30 μM highest concentration tested, read-out: Results from Isolated Enzyme Assay IC50 (μM) ROCK2
T1 construct: GST-tagged human ROCK2 catalytic domain 1-553 from Carna Biosciences (Cat #01-110); purchased Carna Biosciences 01-110; host or cells: baculovirus expression system
T1 sequence (O75116 1-553): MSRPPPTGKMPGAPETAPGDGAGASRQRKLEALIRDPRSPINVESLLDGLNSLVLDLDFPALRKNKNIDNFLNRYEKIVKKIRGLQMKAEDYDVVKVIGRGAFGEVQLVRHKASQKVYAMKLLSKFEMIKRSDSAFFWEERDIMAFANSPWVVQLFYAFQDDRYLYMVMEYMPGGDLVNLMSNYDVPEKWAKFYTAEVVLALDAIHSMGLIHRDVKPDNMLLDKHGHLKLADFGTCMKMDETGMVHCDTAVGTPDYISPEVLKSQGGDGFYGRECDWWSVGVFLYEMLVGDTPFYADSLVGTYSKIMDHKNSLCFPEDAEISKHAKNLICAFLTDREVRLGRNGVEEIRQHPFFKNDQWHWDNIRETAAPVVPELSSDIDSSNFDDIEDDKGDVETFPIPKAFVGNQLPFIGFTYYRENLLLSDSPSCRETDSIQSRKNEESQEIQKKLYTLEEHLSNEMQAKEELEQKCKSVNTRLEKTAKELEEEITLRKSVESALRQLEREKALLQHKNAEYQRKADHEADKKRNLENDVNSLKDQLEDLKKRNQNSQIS
Procedure: (§1) Exemplary compounds were tested for ability to inhibit Rho-associated protein kinase isoform 1 (ROCK1) and Rho-associated protein kinase isoform 2 (ROCK2). Assay procedures and results are described below.
(§2) Part I—Procedure for Determining ROCK Inhibition Ability of Test Compounds Using an Isolated Enzyme Assay
(§3) Protein constructs were purified from a baculovirus expression system. The peptide substrate was fluorescent LANCE® Ultra ULight-CREBtide: […] (PerkinElmer, # TRF0107-D). Kinase reactions were carried out in a 10 μL volume in 384-well plates: 50 nM ULight-CREBtide substrate, 2 nM constitutively active ROCK1 or ROCK2 kinase, and test compound in DMSO (or DMSO only for controls) were diluted into assay buffer containing 50 mM Tris-HCl (pH=7.5), 10 mM MgCl2, 1 mM EGTA, 0.01% Tween-20, and 2 mM DTT such that the final concentration of DMSO was 0.5%. After a 90 minute incubation at room temperature on a shaker table, the kinase reaction was stopped by addition of 10 mM EDTA, and phosphorylation of the substrate was detected by adding 1 nM LANCE® Ultra Europium-anti-phospho-CREB (ser133) antibody (PerkinElmer, # TRF0200-D) and incubating for 60 minutes on a shaker at room temperature. The fluorescence resonance energy transfer (FRET) signals were read and analyzed on an Envision™ 2103 Multilabel Reader (Perkin Elmer). The concentration of test compound required to inhibit substrate phosphorylation by 50% (the IC50) was calculated by non-linear regression using GraphPad PRIZM.

ROCK2 = molecular target: T2, ROCK2 (Homo sapiens, UniProt O75116); assay: Cell-Based Assay, ROCK2 (HAP1 knockout cells, phospho-MYPT1 Thr853 ELISA); conditions: read-out: Results from Cell-Based Assay IC50 (μM) ROCK2
T2 construct: endogenous in cells; host or cells: HAP1 knockout cells
T2 sequence (O75116 whole entry): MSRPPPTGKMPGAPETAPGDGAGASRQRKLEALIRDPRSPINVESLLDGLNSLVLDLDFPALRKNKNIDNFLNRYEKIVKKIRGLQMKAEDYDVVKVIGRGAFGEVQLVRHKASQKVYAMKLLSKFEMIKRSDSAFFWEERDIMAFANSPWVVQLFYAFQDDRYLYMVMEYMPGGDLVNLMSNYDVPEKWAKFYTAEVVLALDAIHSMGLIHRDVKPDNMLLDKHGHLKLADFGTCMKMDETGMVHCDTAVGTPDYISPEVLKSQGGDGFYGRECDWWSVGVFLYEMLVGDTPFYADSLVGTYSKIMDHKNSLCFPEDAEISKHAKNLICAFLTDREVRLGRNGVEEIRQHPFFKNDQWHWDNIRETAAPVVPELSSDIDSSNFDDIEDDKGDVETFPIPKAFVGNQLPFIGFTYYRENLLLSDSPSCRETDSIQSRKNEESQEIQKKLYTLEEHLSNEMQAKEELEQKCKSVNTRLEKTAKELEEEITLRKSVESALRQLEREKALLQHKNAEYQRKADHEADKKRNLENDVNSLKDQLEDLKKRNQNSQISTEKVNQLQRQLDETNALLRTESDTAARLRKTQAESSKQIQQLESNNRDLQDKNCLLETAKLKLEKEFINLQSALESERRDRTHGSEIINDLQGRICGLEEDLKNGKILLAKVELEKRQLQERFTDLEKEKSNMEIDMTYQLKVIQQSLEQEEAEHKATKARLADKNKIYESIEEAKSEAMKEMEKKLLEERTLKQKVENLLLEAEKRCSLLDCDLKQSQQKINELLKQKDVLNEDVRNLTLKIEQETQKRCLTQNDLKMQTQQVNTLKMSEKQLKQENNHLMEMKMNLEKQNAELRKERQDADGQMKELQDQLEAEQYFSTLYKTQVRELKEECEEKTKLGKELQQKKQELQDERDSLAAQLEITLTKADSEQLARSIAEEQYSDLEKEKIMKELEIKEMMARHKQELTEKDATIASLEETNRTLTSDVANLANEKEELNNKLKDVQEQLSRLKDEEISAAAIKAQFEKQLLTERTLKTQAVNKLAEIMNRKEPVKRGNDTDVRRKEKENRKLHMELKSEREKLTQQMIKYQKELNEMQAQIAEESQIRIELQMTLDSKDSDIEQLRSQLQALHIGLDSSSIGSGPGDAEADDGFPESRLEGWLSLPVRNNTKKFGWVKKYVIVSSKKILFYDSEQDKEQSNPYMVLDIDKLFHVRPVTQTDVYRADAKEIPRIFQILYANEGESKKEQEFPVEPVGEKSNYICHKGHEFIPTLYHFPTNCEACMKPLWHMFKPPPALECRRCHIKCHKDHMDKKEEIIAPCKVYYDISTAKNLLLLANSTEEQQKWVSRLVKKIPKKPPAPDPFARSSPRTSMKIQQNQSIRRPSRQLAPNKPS
Procedure: (§4) Part II—Procedure for Determining ROCK Inhibition Ability of Test Compounds Using a Cell-Base Assay
(§5) The Cell-Based Assay for determining ROCK inhibition ability of test compounds utilized a genetically modified HAP1 cell line engineered to eliminate expression of either ROCK1 or ROCK2. In the procedure, HAP1 knockout cells are grown in Iscove's Modified Dulbecco's Medium that is additionally supplemented with 10% fetal bovine and 1x antibiotic-antimycotic mixture. Cells are plated in 96 well tissue culture plates at 1×10^5 cells/well (100 μL, of cells at 1×10^6/mL). Test compounds are solubilized in DMSO and diluted into the same media used to grow the cells. A 100 μL, aliquot of each compound dilution in media is added to each well containing the HAP1 cells and incubated at 37° C. for 30 minutes. Following compound incubation, the cells are pelleted by centrifugation at 1800 rpm for 5 minutes at 4° C. Media is removed from the cell pellet and the cells lysed and de-salted. An 80 μL, aliquot of each cell lysate is added to a single well of a 96-well high binding ELISA plate which has been pre-coated with a MYPT1 capture antibody and incubated at 4° C. overnight. The following day the ELISA plate is washed 4× with 0.05% Tween-20 in PBS. After washing, an anti-phospho-MYPT1 (Thr853) antibody is added and allowed to bind for 1 hour at room temperature. The wash step is repeated, and then an anti-rabbit HRP detection antibody is added and allowed to incubate at room temperature for 1 hour. The wash step is then repeated and 100 μL/well 1-Step™ Ultra TMB substrate is added to the ELISA plate and allowed to develop for approximately 5 minutes. The reaction is stopped by addition of H2SO4. Absorbance is read at 450 OD. Data is analyzed using GraphPad Prism software to calculate the 50% inhibitory concentration of test compound (IC50).

ROCK1 = molecular target: T3, ROCK1 (Homo sapiens, UniProt Q13464); assay: Cell-Based Assay, ROCK1 (HAP1 knockout cells, phospho-MYPT1 Thr853 ELISA); conditions: read-out: Results from Cell-Based Assay IC50 (μM) ROCK1
T3 construct: endogenous in cells; host or cells: HAP1 knockout cells
T3 sequence (Q13464 whole entry): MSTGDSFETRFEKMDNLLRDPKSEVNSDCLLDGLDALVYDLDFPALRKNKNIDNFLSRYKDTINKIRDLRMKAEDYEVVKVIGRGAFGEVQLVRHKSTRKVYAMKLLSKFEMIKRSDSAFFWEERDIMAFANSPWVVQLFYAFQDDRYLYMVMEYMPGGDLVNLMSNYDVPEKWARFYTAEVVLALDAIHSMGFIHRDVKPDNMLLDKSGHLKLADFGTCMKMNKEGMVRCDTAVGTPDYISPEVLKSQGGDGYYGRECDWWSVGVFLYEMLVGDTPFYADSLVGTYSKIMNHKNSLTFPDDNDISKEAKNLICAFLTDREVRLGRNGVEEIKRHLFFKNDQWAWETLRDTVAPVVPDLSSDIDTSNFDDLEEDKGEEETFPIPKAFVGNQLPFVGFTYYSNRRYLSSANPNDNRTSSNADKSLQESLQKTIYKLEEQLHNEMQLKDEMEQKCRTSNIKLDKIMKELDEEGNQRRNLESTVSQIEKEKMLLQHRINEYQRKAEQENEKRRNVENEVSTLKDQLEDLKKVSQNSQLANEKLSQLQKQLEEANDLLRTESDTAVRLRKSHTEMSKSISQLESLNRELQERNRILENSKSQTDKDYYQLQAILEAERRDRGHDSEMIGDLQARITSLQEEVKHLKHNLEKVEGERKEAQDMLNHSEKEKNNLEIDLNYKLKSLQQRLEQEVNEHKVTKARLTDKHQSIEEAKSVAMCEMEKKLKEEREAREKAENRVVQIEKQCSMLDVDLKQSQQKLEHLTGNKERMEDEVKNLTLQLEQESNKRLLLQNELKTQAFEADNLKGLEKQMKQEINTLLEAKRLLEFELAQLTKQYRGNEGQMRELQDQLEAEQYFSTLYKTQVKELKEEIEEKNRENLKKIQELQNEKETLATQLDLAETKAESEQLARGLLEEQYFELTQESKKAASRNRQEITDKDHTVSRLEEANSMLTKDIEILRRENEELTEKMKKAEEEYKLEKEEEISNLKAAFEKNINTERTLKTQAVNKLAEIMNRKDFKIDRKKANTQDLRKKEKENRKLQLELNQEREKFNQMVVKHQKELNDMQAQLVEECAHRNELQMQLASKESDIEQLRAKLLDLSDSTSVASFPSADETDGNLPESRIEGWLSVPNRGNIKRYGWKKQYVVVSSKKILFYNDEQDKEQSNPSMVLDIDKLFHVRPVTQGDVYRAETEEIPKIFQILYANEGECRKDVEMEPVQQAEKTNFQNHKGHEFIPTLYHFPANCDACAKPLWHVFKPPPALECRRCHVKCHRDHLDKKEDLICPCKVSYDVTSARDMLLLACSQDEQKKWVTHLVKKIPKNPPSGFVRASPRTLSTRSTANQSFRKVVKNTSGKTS
Procedure: as §4, §5

[2] = molecular target: T4, GST-tagged human ROCK1 catalytic domain 1-477 (Homo sapiens, UniProt Q13464); assay: Isolated Enzyme Assay, ROCK1 (LANCE Ultra ULight-CREBtide FRET); format: biochemical; conditions: 30 μM highest concentration tested, read-out: Results from Isolated Enzyme Assay IC50 (μM) ROCK1
T4 construct: human ROCK1 catalytic domain 1-477 from Carna Biosciences (cat #01-109); purchased Carna Biosciences 01-109; host or cells: baculovirus expression system
T4 sequence (Q13464 1-477): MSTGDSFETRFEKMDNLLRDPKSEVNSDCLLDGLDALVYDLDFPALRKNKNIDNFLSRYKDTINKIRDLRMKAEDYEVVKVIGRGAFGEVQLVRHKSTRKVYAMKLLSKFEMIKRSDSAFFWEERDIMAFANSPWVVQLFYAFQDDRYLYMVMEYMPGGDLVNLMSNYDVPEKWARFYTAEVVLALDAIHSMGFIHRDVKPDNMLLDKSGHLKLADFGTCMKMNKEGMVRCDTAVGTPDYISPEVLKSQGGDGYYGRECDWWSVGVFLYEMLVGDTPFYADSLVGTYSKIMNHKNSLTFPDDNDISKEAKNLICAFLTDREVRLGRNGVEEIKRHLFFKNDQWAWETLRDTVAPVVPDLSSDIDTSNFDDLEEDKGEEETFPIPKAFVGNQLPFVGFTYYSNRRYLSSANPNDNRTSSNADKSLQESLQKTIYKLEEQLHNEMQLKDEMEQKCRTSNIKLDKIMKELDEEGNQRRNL
Procedure: as §1, §2, §3

[3] = phospho-MYPT1, 30 μM highest concentration tested

Row | IC50 ([1]; isolated enzyme assay) | IC50 (ROCK2; class symbols) | IC50 (ROCK1; numeric bound) | IC50 ([2]; isolated enzyme assay) | IC50 (ROCK1; class symbols) | IC50 ([1]; isolated enzyme) | IC50 (ROCK2; [3]) | IC50 (ROCK1; [3]) | IC50 ([2]; isolated enzyme) | IC50 (ROCK2; numeric bound) | SMILES
1 | < 1 µM | < 1 µM | > 10 µM | < 1 µM | – | – | – | – | – | – | Cc1nc(C)c(C(=O)Nc2cccc(-c3nsc(Nc4ccc5[nH]ncc5c4Cl)n3)c2)o1 [IV-61]
2 | < 1 µM | < 1 µM | > 10 µM | < 1 µM | – | – | – | – | – | – | O=C(NCC(F)(F)F)c1cccc(-c2nsc(Nc3ccc4[nH]ncc4c3Cl)n2)c1 [IV-81]
3 | < 1 µM | < 1 µM | > 10 µM | < 1 µM | – | – | – | – | – | – | Cn1ccnc1C(=O)Nc1cccc(-c2nsc(Nc3ccc4[nH]ncc4c3Cl)n2)c1 [IV-73]
4 | < 1 µM | < 1 µM | – | < 1 µM | 1 to 15 µM | – | – | – | – | – | O=C(Nc1cccc(-c2nsc(Nc3ccc4[nH]ncc4c3Cl)n2)c1)c1ccccn1 [IV-74]
5 | – | – | – | – | – | < 1 µM | < 1 µM | 1 to 15 µM | < 1 µM | – | Cn1nccc1C(=O)Nc1cccc(-c2nsc(Nc3ccc4[nH]ncc4c3Cl)n2)c1 [Compound A-3]
6 | < 1 µM | < 1 µM | – | < 1 µM | 1 to 15 µM | – | – | – | – | – | O=C1OCCN1c1cccc(-c2nsc(Nc3ccc4[nH]ncc4c3Cl)n2)c1 [IV-55]
7 | < 1 µM | < 1 µM | – | < 1 µM | 1 to 15 µM | – | – | – | – | – | O=C(CC1CCCO1)Nc1cccc(-c2nsc(Nc3ccc4[nH]ncc4c3Cl)n2)c1 (centres unmarked) [IV-71]
8 | < 1 µM | < 1 µM | > 10 µM | < 1 µM | – | – | – | – | – | – | Cn1nncc1C(=O)Nc1cccc(-c2nsc(Nc3ccc4[nH]ncc4c3Cl)n2)c1 [IV-62]
9 | < 1 µM | < 1 µM | > 10 µM | < 1 µM | – | – | – | – | – | – | O=C(Nc1cccc(-c2nsc(Nc3ccc4[nH]ncc4c3Cl)n2)c1)c1cc[nH]n1 [IV-75]
10 | < 1 µM | < 1 µM | – | < 1 µM | 1 to 15 µM | – | – | – | – | – | CC(C)NC(=O)COc1cccc(-c2nsc(Nc3ccc4[nH]ncc4c3Cl)n2)c1 [IV-9]
11 | < 1 µM | < 1 µM | > 10 µM | < 1 µM | – | – | – | – | – | – | Cn1cc(C(=O)Nc2cccc(-c3nsc(Nc4ccc5[nH]ncc5c4Cl)n3)c2)cn1 [IV-78]
12 | < 1 µM | < 1 µM | – | < 1 µM | 1 to 15 µM | – | – | – | – | – | O=C1CCCN1c1cccc(-c2nsc(Nc3ccc4[nH]ncc4c3Cl)n2)c1 [IV-83]
13 | < 1 µM | < 1 µM | > 10 µM | < 1 µM | – | – | – | – | – | – | Cc1cc(C(=O)Nc2cccc(-c3nsc(Nc4ccc5[nH]ncc5c4Cl)n3)c2)n[nH]1 [IV-76]

The remaining lines, values behind:

Row | SMILES | IC50 ([1]; isolated enzyme assay) | IC50 (ROCK2; class symbols) | IC50 (ROCK1; numeric bound) | IC50 ([2]; isolated enzyme assay) | IC50 (ROCK1; class symbols) | IC50 ([1]; isolated enzyme) | IC50 (ROCK2; [3]) | IC50 (ROCK1; [3]) | IC50 ([2]; isolated enzyme) | IC50 (ROCK2; numeric bound)
14 | Cn1nccc1C(=O)Nc1cc(-c2nsc(Nc3ccc4[nH]ncc4c3Cl)n2)cn(C)c1=O [IV-6] | < 1 µM | < 1 µM | > 10 µM | < 1 µM | – | – | – | – | – | –
15 | CC(C)c1cc(C(=O)Nc2cccc(-c3nsc(Nc4ccc5[nH]ncc5c4Cl)n3)c2)n(C)n1 [IV-63] | < 1 µM | < 1 µM | – | < 1 µM | 1 to 15 µM | – | – | – | – | –
16 | CC1(C)CN(c2cccc(-c3nsc(Nc4ccc5[nH]ncc5c4Cl)n3)c2)C(=O)O1 [IV-54] | < 1 µM | < 1 µM | – | < 1 µM | 1 to 15 µM | – | – | – | – | –
17 | Cc1coc(-c2cc(-c3nsc(Nc4ccc5[nH]ncc5c4Cl)n3)ccn2)n1 [IV-59] | < 1 µM | < 1 µM | > 10 µM | > 30 µM | – | – | – | – | – | –
18 | COc1ncc(C(=O)Nc2cccc(-c3nsc(Nc4ccc5[nH]ncc5c4Cl)n3)c2)cn1 [IV-70] | < 1 µM | < 1 µM | > 10 µM | < 1 µM | – | – | – | – | – | –
19 | CC(C)(O)CNC(=O)c1cc(-c2nsc(Nc3ccc4[nH]ncc4c3Cl)n2)ccc1F [IV-22] | < 1 µM | < 1 µM | – | < 1 µM | 1 to 15 µM | – | – | – | – | –
20 | O=C(NC1CCCC1)c1cc(-c2nsc(Nc3ccc4[nH]ncc4c3Cl)n2)ccc1F [IV-48] | < 1 µM | < 1 µM | – | < 1 µM | 1 to 15 µM | – | – | – | – | –
21 | Cc1cc(C(=O)Nc2cncc(-c3nsc(Nc4ccc5[nH]ncc5c4Cl)n3)c2)n(C)n1 [IV-42] | > 30 µM | < 1 µM | > 10 µM | > 30 µM | – | – | – | – | – | –
22 | Cc1cnc(-c2cc(-c3nsc(Nc4ccc5[nH]ncc5c4Cl)n3)cn(C)c2=O)o1 [IV-12] | < 1 µM | < 1 µM | > 10 µM | < 1 µM | – | – | – | – | – | –
23 | CC(C)N1CCN(c2cc(-c3nsc(Nc4ccc5[nH]ncc5c4Cl)n3)ccn2)C1=O [IV-90] | < 1 µM | < 1 µM | – | < 1 µM | 1 to 15 µM | – | – | – | – | –
24 | CC1(C)CCN(c2cccc(-c3nsc(Nc4ccc5[nH]ncc5c4Cl)n3)c2)C1=O [IV-56] | < 1 µM | < 1 µM | – | < 1 µM | 1 to 15 µM | – | – | – | – | –
25 | Cn1cc(-c2nsc(Nc3ccc4[nH]ncc4c3Cl)n2)cc(NC(=O)c2ccccc2F)c1=O [IV-50] | < 1 µM | < 1 µM | > 10 µM | > 30 µM | – | – | – | – | – | –
26 | CC1(C)CN(c2cccc(-c3nsc(Nc4ccc5[nH]ncc5c4Br)n3)c2)C(=O)O1 [IV-35] | < 1 µM | < 1 µM | – | < 1 µM | 1 to 15 µM | – | – | – | – | –
27 | O=C(Nc1ccccn1)c1cccc(-c2nsc(Nc3ccc4[nH]ncc4c3Cl)n2)c1 [IV-66] | < 1 µM | < 1 µM | – | < 1 µM | 1 to 15 µM | – | – | – | – | –
28 | Cc1cc(C(=O)Nc2cc(-c3nsc(Nc4ccc5[nH]ncc5c4Cl)n3)ccn2)n(C)n1 [IV-58] | < 1 µM | < 1 µM | > 10 µM | > 30 µM | – | – | – | – | – | –
29 | Oc1ccn(-c2cccc(-c3nsc(Nc4ccc5[nH]ncc5c4Cl)n3)c2)n1 [IV-17] | < 1 µM | 1 to 15 µM | > 10 µM | < 1 µM | – | – | – | – | – | –
30 | Cn1cnc2c(-c3nsc(Nc4ccc5[nH]ncc5c4Cl)n3)cccc21 [IV-82] | 1 to 15 µM | < 1 µM | – | < 1 µM | 1 to 15 µM | – | – | – | – | –
31 | Cn1ccc(C(=O)Nc2cc(-c3nsc(Nc4ccc5[nH]ncc5c4Cl)n3)cn(C)c2=O)n1 [IV-10] | < 1 µM | – | > 10 µM | > 30 µM | – | – | – | – | – | > 10 µM
32 | Cc1cc(NC(=O)c2cocn2)cc(-c2nsc(Nc3ccc4[nH]ncc4c3Cl)n2)n1 [IV-19] | < 1 µM | < 1 µM | > 10 µM | < 1 µM | – | – | – | – | – | –
33 | COc1ncc(C(=O)Nc2cncc(-c3nsc(Nc4ccc5[nH]ncc5c4Cl)n3)c2)cn1 [IV-8] | < 1 µM | – | > 10 µM | > 30 µM | – | – | – | – | – | > 10 µM
34 | CC1COCCN1C(=O)Nc1cc(-c2nsc(Nc3ccc4[nH]ncc4c3Cl)n2)ccn1 (centres unmarked) [IV-38] | < 1 µM | < 1 µM | – | < 1 µM | 1 to 15 µM | – | – | – | – | –
35 | COc1ncc(C(=O)Nc2cc(-c3nsc(Nc4ccc5[nH]ncc5c4Cl)n3)cn(C)c2=O)cn1 [IV-7] | < 1 µM | – | > 10 µM | > 30 µM | – | – | – | – | – | > 10 µM
